Reference: US11628221B2, “Peptide linker and combination for prodrugs activated by prostate-specific antigen” (priority 2017, dated 2023)
pIC50: −log10 of the molar value. Like-named read-outs stand apart in the source and are kept apart here. Numbered stars: 1 amine (or outer) side, 2 acyl side, 3 side chain; on linkers, the order of the positions; unused ones are H or OH. Square brackets hold non-standard residues; d marks the D form. Peptide text beside a SMILES is read from it. * marks the point of attachment. Doxorubicin(3'-N) = COc1cccc2c1C(=O)c1c(O)c3c(c(O)c1C2=O)C[C@@](O)(C(=O)CO)C[C@@H]3O[C@H]1C[C@H](N*)[C@H](O)[C@H](C)O1; Glutaryl = O=C(CCCC(=O)[*:2])[*:1]; Hyp = O=C(O)[C@@H]1C[C@@H](O)CN1; Chg = N[C@H](C(=O)O)C1CCCCC1; X1 = O=C(O)CCCNC(=O)CC(=O)*

Experiments:
LNCaP cells = assay: cells; settings: for pIC50: read-out: LNCaP IC50
Method: (§1) Monolayer cultures of PSA-secreting LNCaP and non-PSA-secreting DU145 human prostate carcinoma cells were conducted in growth medium in a CO2 incubator under a humidified atmosphere at 37° C. for 3 weeks prior to initiating cytotoxicity experiments. During cell growth, media were changed every 3 days and trypsinization carried out at 80% confluence with a 1:4 split for subsequent cultures. Cells were grown on 96-well plates for 48 h at initial concentrations of 5000 cells/well. At the end of the 48-h period, the growth medium was replaced by serum-free medium RPMI 1640 medium containing L-glutamine (2 mM), 2% TCM, penicillin G (100 units/mL) and streptomycin sulfate (100 units/mL), and prodrugs added to wells at concentrations ranging from 0.07 to 100 μM. The plates were incubated at 37° C. for 72 h under a humidified CO2 atmosphere, and cell viability determined using the MTT assay. Briefly, 10 μL aliquots of a 12 mM MTT solution were added to wells and the plates incubated in a CO2 incubator under a humidified atmosphere at 37° C. for 4 h. Well contents were then solubilized with 1% SDS (100 μL/well) for 12 h, and OD570 values measured on a Dynatech MR5000 plate reader. Cell viability was computed as a percentage of control growth, and IC50 values determined as the concentration at which cell growth is inhibited by 50%.
(§2) To assess cytotoxicity and tumor selectivity, all prodrugs were incubated in cultured cell lines secreting (LNCaP) or lacking (DU145) PSA for a period of 72 h. Doxorubicin was used as a positive control and cell viability determined at the end of the incubation period using an MTT assay. It was anticipated that peptide prodrugs would be activated extracellularly in LNCaP, but not DU145 cells, by the proteolytic action of PSA releasing doxorubicin that would ultimately lead to cell death.

DU145 cells = assay: Prodrug cytotoxicity in non-PSA-secreting DU145 cells (MTT assay), selectivity; assay type: cell-based, human; settings: LNCaP versus non-PSA-secreting DU145 cells, 72 h
Method: as §1, §2

human PSA = human PSA (Homo sapiens, UniProt P07288); assay: Hydrolysis of doxorubicin prodrugs by PSA (PSA enzyme assay, LC-MS/MS prodrug disappearance); settings: for % of prodrug at 60 min: prodrug 1 μM incubated with human PSA 1 μM, 50 mM Tris buffer pH 8, 37° C.
Chain of human PSA (P07288 25-261): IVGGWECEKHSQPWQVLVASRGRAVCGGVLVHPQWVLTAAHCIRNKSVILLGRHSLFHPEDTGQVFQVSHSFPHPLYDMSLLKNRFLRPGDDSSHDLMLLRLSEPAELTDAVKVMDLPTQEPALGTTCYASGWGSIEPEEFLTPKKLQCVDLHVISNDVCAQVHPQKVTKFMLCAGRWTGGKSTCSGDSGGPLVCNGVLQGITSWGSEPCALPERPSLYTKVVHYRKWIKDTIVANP
Method: (§3) For doxorubicin conjugates, peptide solution concentrations were determined by measuring the UV absorbance at 484 and 254 nm (20 μM for doxorubicin and 50 μM for phosphoramide mustard conjugates, respectively) of solutions prepared (based on weight) in water from 10 mM DMSO stock solutions. Using the extinction coefficients of doxorubicin at 484 nm (10,800 M-1·cm-1), peptide concentrations were calculated and adjusted accordingly to prepare 100 μM solutions in 50 mM Tris buffer, pH 8 containing 2 mM CaCl2 and 0.1% Tween 20. […] Peptide solutions were prepared in Tris buffer pH 8 at a concentration of 1.11 μM from 1 mM DMSO stock solutions, and warmed up to 37° C. Reactions were initiated at 37° C. with the addition of 5 μL aliquots of a 10 μM solution of human PSA to 45 μL aliquots of the 1.11 μM peptide solutions in eppendorf vials (total volume 50 μL, final PSA concentration 1 μM), and time points recorded over a period of 3 h. Reactions were terminated at 0, 10, 20, 30, 60, 120, 180 and 360 min by quenching 2 μL aliquots of incubates with 20 μL of chilled 50% ACN containing 0.1 μM internal standard (IS) and 0.1% formic acid (FA) pre-added to eppendorf vials. Samples were centrifuged at 3000 RPM for 15 min and the supernatants analyzed by LC-MS/MS in SRM mode as previously described. The fraction of prodrug remaining at each time point was calculated by dividing the prodrug/IS ratio by the 0-h prodrug/IS area ratio and half-life determined from prodrug disappearance rate.
(§4) Substrate disappearance was monitored by LC-MS/MS analysis using SRM. The percentage of prodrug remaining at any given time point was computed by taking the ratio of its peak area response and that of the 0-h time point.

tumor cells = settings: cited from earlier work
[1] = target: PSA (prostate-specific antigen) (Homo sapiens, UniProt P07288); assay: Hydrolysis of doxorubicin prodrugs by PSA (PSA enzyme assay, LC-MS/MS prodrug disappearance); settings: human, pH 8
Chain of PSA (prostate-specific antigen) (P07288 25-261): as above
Method: as §3, §4

[2] = 72 h incubation, MTT assay, PSA-secreting LNCaP cells

Row | Compound | pIC50 (LNCaP cells; [2]) | Selectivity against DU145 (DU145 cells) | % of prodrug at 60 min (human PSA) | cytotoxicity against PSA-secreting LNCaP cells (in words) (LNCaP cells; 72 h, MTT assay) | half-life at 1 μM [1] | also measured
1 | COc1cccc2c1C(=O)c1c(O)c3c(c(O)c1C2=O)C[C@@](O)(C(=O)CO)C[C@@H]3O[C@H]1C[C@H](NC(=O)[C@H](CC(C)C)NC(=O)[C@H](CO)NC(=O)[C@H](CCC(N)=O)NC(=O)[C@@H](NC(=O)[C@H](CO)NC(=O)[C@H](C)NC(=O)[C@@H]2C[C@@H](O)CN2C(=O)CCCC(=O)O)C2CCCCC2)[C@H](O)[C@H](C)O1 [Prodrug 1, Glutaryl-Hyp-Ala-Ser-Chg-Gln-Ser-Leu-Dox] (Glutaryl-[Hyp]AS[Chg]QSL-{Doxorubicin(3'-N)}) | 6.74 | 560 | 13% | – | – | –
2 | COc1cccc2c1C(=O)c1c(O)c3c(c(O)c1C2=O)C[C@@](O)(C(=O)CO)C[C@@H]3O[C@H]1C[C@H](NC(=O)[C@@H](N)CC(C)C)[C@H](O)[C@H](C)O1 [Leu-Doxorubicin] | – | – | – | – | – | fold less cytotoxic (than doxorubicin) (tumor cells; Wong et al. (2001)): 10 fold
3 | COc1cccc2c1C(=O)c1c(O)c3c(c(O)c1C2=O)C[C@@](O)(C(=O)CO)C[C@@H]3O[C@H]1C[C@H](N)[C@H](O)[C@H](C)O1 [Dox, Doxorubicin] | – | 1 | – | – | – | pIC50 (LNCaP cells; Homo sapiens, LNCaP, 72 h): > 7.15; times more potent than Leu-Doxorubicin at killing tumor cells (tumor cells): 10 times
4 | COc1cccc2c1C(=O)c1c(O)c3c(c(O)c1C2=O)C[C@@](O)(C(=O)COC(=O)C(C)(C)CONC(=O)[C@H](CCC(N)=O)NC(=O)[C@@H](NC(=O)[C@H](CO)NC(=O)[C@H](C)NC(=O)CC(=O)NCCCC(=O)O)C1CCCCC1)C[C@@H]3O[C@H]1C[C@H](N)[C@H](O)[C@H](C)O1 [Prodrug 4, GABA←mGly-Ala-Ser-Chg-Gln-NH—O—CH2—C(Me)2C(O)-14-O-Dox] | – | – | – | comparable to that of L-377,202 | 67 min | cytotoxin released by the prodrug (human PSA; PSA-mediated hydrolysis, LC-MS with accurate mass (FIG. 10)): free doxorubicin
5 | COc1cccc2c1C(=O)c1c(O)c3c(c(O)c1C2=O)C[C@@](O)(C(=O)CO)C[C@@H]3O[C@H]1C[C@H](NC(=O)[C@H](CC(C)C)NC(=O)[C@H](CO)NC(=O)[C@H](CCC(N)=O)NC(=O)[C@@H](NC(=O)[C@H](CO)NC(=O)[C@H](C)NC(=O)CC(=O)NCCCC(=O)O)C2CCCCC2)[C@H](O)[C@H](C)O1 [Prodrug 3, GABA←mGly-Ala-Ser-Chg-Gln-Ser-Leu-Dox] (X1-AS[Chg]QSL-{Doxorubicin(3'-N)}) | – | – | – | most cytotoxic prodrug | 22 min | –
6 | COc1cccc2c1C(=O)c1c(O)c3c(c(O)c1C2=O)C[C@@](O)(C(=O)CO)C[C@@H]3O[C@H]1C[C@H](NC(=O)[C@H](CC(C)C)NC(=O)[C@H](CO)NC(=O)[C@H](CCC(N)=O)NC(=O)[C@@H](NC(=O)[C@H](CO)NC(=O)[C@H](C)NC(=O)[C@H](CO)NC(=O)CCCC(=O)O)C2CCCCC2)[C@H](O)[C@H](C)O1 [Prodrug 2, Glutaryl-Ser-Ala-Ser-Chg-Gln-Ser-Leu-Dox] (Glutaryl-SAS[Chg]QSL-{Doxorubicin(3'-N)}) | 6.57 | 370 | 12% | – | – | –
